The structures appear in SMILES notation.

Assay [1] has as its system Wistar male rats. The experiment in a line: Confirmation test of anti-stress activity (Test Example 2). To be noted: oral, 30 minutes before stress loading; counted 1 hour thereafter; present tense. It counts as in vivo, rat.
The test system of assay [2] is olfactory bulbectomized rats. Kind of assay: Influence upon anxiolytic behavior on an elevated plus maze in olfactory bulbectomized rats (Test Example 4-3). The assay is classed as in vivo, rat. To be noted: once a day for 8 days; test 2 hours after administration; present tense. An excerpt:
Wistar male rats are used in the test. By fixing the head of each rat under pentobarbital sodium anesthesia to a brain stereotaxic apparatus, the head skin is incised and then holes are opened at right and left olfactory bulb regions using a dental drill to suck and remove the right and left olfactory bulbs using an aspirator. The head skin is stitched thereafter. In this connection, the suction and removal of olfactory bulbs are not carried out in the sham-operation group, and the head skin is stitched after opening holes at right and left olfactory bulb regions. […]
An elevated plus maze apparatus consisting of a open arm without a wall and a closed arm having a wall is used in the test. […] The anxiolytic behavior is analyzed from the pictures of a video camera by a video picture behavior analysis device.
The vehicle and test drug are repeatedly administered once a day for 8 days. […] After 2 hours of the administration, the animal is softly put on the platform toward one of the open arms and measured for 5 minutes. […] The items (1) to (6) shown below are measured using the video picture behavior analysis device, and (7) and (8) are counted after completion of the measurement. […]

The subject of another assay is SD rats. The experiment in a line: Water-immersion stress-loaded elevated plus maze test (Test Example 1). To be noted: oral, 1 hour before test, written in present tense. It counts as in vivo, rat. The method, then:
Two open arms of the same length (50×10 cm) and two closed arms of the same length (50×10 cm) (a wall of 30 cm is set) are set crossing at a right angle at a height of 50 cm from the floor and used as an elevated plus maze apparatus. Constant lighting is effected by attaching white lights to 70 cm over both of the open arms.
Using a pool (40×30×38 cm) charged with water of 22° C. to a depth of 25 cm, 120 seconds of forced swimming is loaded on SD rats of 7 weeks of age (Charles River Japan). After 9 minutes of the water-immersion stress-loading, the rats are allowed to stand still on a central part of the apparatus, and the behavior of the rats are analyzed for 5 minutes by an automatic behavior tracing analysis system (EthoVision Version 3.0, Noldus Information Technology) to calculate its staying time (second) on the open arms.
In this connection, rats of the control group are not subjected to the water-immersion stress-loading. Also, a vehicle is orally administered to the vehicle treating group 1 hour before the commencement of the test, and a test drug of various concentrations is administered to the test drug treating group.

Assay [3] deals with Wistar male rats. The experiment in a line: Rat learned helplessness test (Test Example 3). It counts as in vivo. To be noted: oral once a day for 6 days and 1 hour before shock training on 7th day; present tense. The procedure: A learned helplessness test is carried out using a two way type shuttle box which is divided into two by a gate which can be opened and closed so that shift to right and left is possible. Wistar male rats are used in the test, and a shock training is carried out on the 1st day of the test. The shock training is carried out by putting the rats in the apparatus under an inescapable condition by closing the gate, and applying an electric shock (10 seconds×90 times, intervals of 2 seconds) through a floor grid. In this connection, the rats of the control group are not treated with the electric shock and allowed to stay free in the apparatus for the same period of time. An escape test is carried out after 24 hours of the shock training. The escape test is carried out by putting the rats in the apparatus under an escapable condition by opening the gate, and after 5 minutes of adaptation, by applying a light stimulation and a sound stimulation (conditional stimulation) simultaneously for 5 seconds and subsequently applying an electric shock (no conditional stimulation) for 10 seconds. By regarding a case of no escaping and continuously receiving the electric shock as escape failure, this trial is repeated 40 times (intervals of 5 seconds), and behavior of the rats is analyzed by a behavior analysis software (MED-PC Version 1.16). […]

In the case of `CCCCCC[C@@H](CCC)C(=O)O` [(2R)-2-propyloctanoic acid], the “Number of defecations versus vehicle treating group” value in the assay on Wistar male rats [1] is recorded as “significantly suppress the number of defecations”. In addition, in assay [2], the “Anxiolytic behavior versus vehicle treating group” value is “suppresses the anxiolytic behavior”. In addition, in the assay with SD rats, the “Staying time on the open arms versus vehicle treating group” value is recorded as “prolongs the staying time on the open arms”. Besides, the “Number of escape failures versus vehicle treating group” value in the assay with Wistar male rats [3] was “inhibits increase of the number of escape failures”.

These data come from patent US9517221B2, “(2R)-2-propyloctanoic acid for functional brain disease” (ONO PHARMACEUTICAL CO., LTD., priority 2006, dated 2016).
